Where only a bound is given, the exact number is not on record here.

In assay [1] the target is Human CB1R (Cannabanoid receptor 1) (Homo sapiens (Human), UniProt P21554). Put plainly: CB-1 in vitro cAMP assay (HTRF). The class given is cell-based. The note with it: mean where tested more than once. From the text:
(§1) CB1 and CB2 receptors are Gi-coupled GPCR. Activation of CB1 and CB2 receptors results in a decrease in cAMP production. An inverse agonist of the CB1 or CB2 receptor results in the opposite effect, an increase of cAMP production. The principle of this assay is based on HTRF® technology (Homogeneous Time-Resolved Fluorescence). The method is a competitive immunoassay between native cAMP produced by cells and the cAMP labeled with the fluorophore d2. The tracer binding is quantified by a Mab anti-cAMP labeled with Eu3+TBP-NHS Cryptate (supplied as part of the assay kit). The specific signal (i.e. energy transfer) is inversely proportional to the concentration of cAMP in the standard or sample.
(§2) Human CB1R (Cannabanoid receptor 1) was stably transfected in HEK-293 cells (DiscoveRx, cat: 93-0200C1). Human CB2R (Cannabanoid receptor 2) was stably transfected in HEK-293 cells (DiscoveRx, cat: 93-0201C1). Cell cultures were maintained in media: DMEM (Invitrogen Cat#12430-054) supplemented with 10% HI FBS (Invitrogen Cat#16140-071), 1% L-glutamine (Invitrogen Cat#25030-081), 0.2 mg/ml Hygromycin B (Invitrogen Cat#10687-010), 600 μg/mL G418 (Invitrogen Cat#10131-035), and 1× Penn/Strep (Invitrogen 15140-122). After cell expansion, aliquots were cryo-stored in media containing 5% DMSO (Pierce Cat#20684).
(§3) One day prior to experiments media was warmed to 37° C. and the cryo-stored cells were thawed in a 37° C. water bath. The cells were then added to media (10× volume) and the mixture was centrifugated at 1000 RPM for 5 min. The supernate was removed and the cells were re-suspended in media. A sample of the cell suspension was evaluated on a Cedex XS automated cell counter (Innovatis Systems) to determine viable cells/ml. Additional media was added to the cells to achieve a final cell density of 4E5 cells/mL. The cells were then plated into 384 well PDL white solid bottom plates (Greiner, Cat#781945) at 20 μL per well using a Multidrop (Thermo Scientific). Cells were removed from Row P (location of cAMP standards). Two columns of cells were plated into a clear bottom 384 well PDL coated plate (Greiner, Cat#781944) to view confluence the day of the assay. The cell plates were lidded and stored for 15 minutes in a hood, then transferred to an incubator (37° C., 5% CO2, 95% humidity) overnight.
(§4) DMSO was added to all wells of 384 well V bottom polystyrene plate (Greiner, Cat#781280) except to columns 1 and 13, rows O and P and wells M13-M23 and N13-N23. Test compounds (60 μL, 10 mM) were added to Column 1 and 13 (A1 through N1 and A13 through L13). Test compounds were serially diluted 1/3 by transferring and mixing 20 μl sample with 40 μL DMSO.
(§5) DMSO (40 μL) was added to wells of 384 well V bottom polystyrene plate: O2 through O11, M14 through M23, N14 through N23, and O14 through O23. AM630 (also known as [6-iodo-2-methyl-1-[2-(4-morpholinyl)ethyl]-1H-indol-3-yl](4-methoxyphenyl)-methanone, Cayman Chemical, Cat#10006974) (60 μL, 10 mM) was added to O1; and 1-(2,4-dichlorophenyl)-7-[(4-fluorophenyl)methylene]-4,5,6,7-tetrahydro-N-1-piperidinyl-1H-indazole-3-carboxamide (60 μL, 10 mM) was added to N13. The control was serially diluted 1/3 by transferring and mixing 20 μl sample with 40 μL DMSO. This process resulted 11 doses per control, 10 mM to […].
(§6) Cells plated the day prior to the assay in clear bottom plates were viewed on an inverse microscope to ensure confluency in the range of 60-75%. […]
In general terms: cAMP levels reflect the balance of adenylyl cyclase and phosphodiesterase activity.

Assay [2] addresses Human CB2R (Cannabanoid receptor 2) (Homo sapiens (Human), UniProt P34972). Kind of assay: CB-2 in vitro cAMP assay (HTRF). The class given is cell-based. The settings on record: mean where tested more than once.
From the text: as §1, §2, §3, §4, §5, §6

Chain of Human CB2R (Cannabanoid receptor 2) (P34972 whole entry): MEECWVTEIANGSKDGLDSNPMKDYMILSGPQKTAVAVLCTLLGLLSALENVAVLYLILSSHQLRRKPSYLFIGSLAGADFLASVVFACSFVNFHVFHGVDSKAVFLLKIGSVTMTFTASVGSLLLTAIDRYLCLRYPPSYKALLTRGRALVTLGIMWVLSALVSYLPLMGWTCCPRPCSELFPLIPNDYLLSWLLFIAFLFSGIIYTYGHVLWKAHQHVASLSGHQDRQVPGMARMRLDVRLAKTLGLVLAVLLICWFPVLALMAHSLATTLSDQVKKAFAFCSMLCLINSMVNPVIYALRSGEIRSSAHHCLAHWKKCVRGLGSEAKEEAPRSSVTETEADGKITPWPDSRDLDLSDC
Chain of Human CB1R (Cannabanoid receptor 1) (P21554 whole entry): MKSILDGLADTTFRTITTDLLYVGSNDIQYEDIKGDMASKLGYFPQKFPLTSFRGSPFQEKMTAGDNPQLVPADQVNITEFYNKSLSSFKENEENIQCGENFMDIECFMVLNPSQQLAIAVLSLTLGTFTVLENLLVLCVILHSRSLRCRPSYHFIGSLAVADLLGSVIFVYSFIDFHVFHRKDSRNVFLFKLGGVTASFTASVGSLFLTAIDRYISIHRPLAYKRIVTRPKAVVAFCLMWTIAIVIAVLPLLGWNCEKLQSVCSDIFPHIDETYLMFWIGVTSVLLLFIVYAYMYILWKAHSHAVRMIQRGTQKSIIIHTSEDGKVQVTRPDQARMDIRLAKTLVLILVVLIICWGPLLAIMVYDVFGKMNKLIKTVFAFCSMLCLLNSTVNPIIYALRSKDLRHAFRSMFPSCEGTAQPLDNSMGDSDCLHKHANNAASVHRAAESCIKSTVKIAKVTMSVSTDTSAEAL

As a reminder, the EC50 is the concentration giving half of the maximal effect. For the compound `O=C(NCCCOc1ccc(CCl)cc1)c1ccc(S(=O)(=O)N2CCC(Nc3ncnc4ccc(C(c5ccc(Cl)cc5)c5ccc(Cl)cc5)cc34)CC2)cc1` [Compound #30, 4-((4-((6-(bis(4-chlorophenyl)methyl)quinazolin-4-yl)amino)piperidin-1-yl)sulfonyl)-N-(3-(4-(chloromethyl)phenoxy)propyl)benzamide], the EC50 in assay [1] is 446 nM; in assay [2], over 10000 nM.
Consider `NCCCCOc1nc(NCc2cccc(C(F)(F)F)c2)c2cc(C(c3ccc(Cl)cc3)c3ccc(Cl)cc3)ccc2n1` [Compound #31, 2-(4-aminobutoxy)-6-(bis(4-chlorophenyl)methyl)-N-(3-(trifluoromethyl)benzyl)quinazolin-4-amine], for which the values for the EC50 in assay [1] and in assay [2] were 77 nM and 4120 nM, respectively.
Regarding `Oc1ccc(N2CCC(Nc3ncnc4ccc(C(c5ccc(Cl)cc5)c5ccc(Cl)cc5)cc34)CC2)cc1` [Compound #32, 4-(4-((6-(bis(4-chlorophenyl)methyl)quinazolin-4-yl)amino)piperidin-1-yl)phenol], the EC50 in assay [1] is 15 nM; in assay [2], 371 nM.
Take `CS(=O)(=O)NCCOc1nc(NC2CCN(S(=O)(=O)c3ccc(C(=O)O)cc3)CC2)c2cc(C(c3ccc(Cl)cc3)c3ccc(Cl)cc3)ccc2n1` [Compound #33, 4-((4-((6-(bis(4-chlorophenyl)methyl)-2-(2-(methylsulfonamido)ethoxy)quinazolin-4-yl)amino)piperidin-1-yl)sulfonyl)benzoic acid]: the concentration giving a half-maximal response (EC50) in assay [1] amounted to 227 nM; in assay [2], 917 nM.
Turning to `NC(=O)c1cccc(CN2CCC(Nc3ncnc4ccc(C(c5ccc(Cl)cc5)c5ccc(Cl)cc5)cc34)CC2)c1` [Compound #36, 3-((4-((6-(bis(4-chlorophenyl)methyl)quinazolin-4-yl)amino)piperidin-1-yl)methyl)benzamide], the EC50 in assay [1] came to 14 nM; in assay [2], 3640 nM.
As to `O=C(O)c1cccc(CN2CCC(Nc3ncnc4ccc(C(c5ccc(Cl)cc5)c5ccc(Cl)cc5)cc34)CC2)c1` [Compound #37, 3-((4-((6-(bis(4-chlorophenyl)methyl)quinazolin-4-yl)amino)piperidin-1-yl)methyl)benzoic acid], the EC50 was 146 nM in assay [1] and 6760 nM in assay [2].
Taken in the same sequence, the figures for `O=C(O)c1ccc(S(=O)(=O)N2CCC(Nc3nc(OCCO)nc4ccc(C(c5ccc(Cl)cc5)c5ccc(Cl)cc5)cc34)CC2)cc1` [Compound #39, 4-((4-((6-(bis(4-chlorophenyl)methyl)-2-(2-hydroxyethoxy)quinazolin-4-yl)amino)piperidin-1-yl)sulfonyl)benzoic acid] were 41 nM and 514 nM.
On to `O=C(COc1nc(NCc2cccc(C(F)(F)F)c2)c2cc(C(c3ccc(Cl)cc3)c3ccc(Cl)cc3)ccc2n1)NCCO` [Compound #40, 2-((6-(bis(4-chlorophenyl)methyl)-4-((3-(trifluoromethyl)benzyl)amino)quinazolin-2-yl)oxy)-N-(2-hydroxyethyl)acetamide], for which the EC50 was 10 nM in assay [1] and 1670 nM in assay [2].
Take `O=C(NC(CO)(CO)CO)c1ccc(S(=O)(=O)N2CCC(Nc3ncnc4ccc(C(c5ccc(Cl)cc5)c5ccc(Cl)cc5)cc34)CC2)cc1` [Compound #41, 4-((4-((6-(Bis(4-chlorophenyl)methyl)quinazolin-4-yl)amino)piperidin-1-yl)sulfonyl)-N-(1,3-dihydroxy-2-(hydroxymethyl)propan-2-yl)benzamide]: the results for the EC50 in assay [1] and in assay [2] were 8 nM and 1470 nM, respectively.
`COC(=O)c1ccc(CN2CCC(Nc3ncnc4ccc(C(c5ccc(Cl)cc5)c5ccc(Cl)cc5)cc34)CC2)cc1` [Compound #43, Methyl 4-((4-((6-(bis(4-chlorophenyl)methyl)quinazolin-4-yl)amino)piperidin-1-yl)methyl)benzoate]: the EC50 in assay [1] was 59 nM; in assay [2], over 10000 nM.
As to `O=C(c1ccc(S(=O)(=O)NCCO)cc1)N1CCC(Nc2ncnc3ccc(C(c4ccc(Cl)cc4)c4ccc(Cl)cc4)cc23)CC1` [Compound #45, 4-(4-((6-(bis(4-chlorophenyl)methyl)quinazolin-4-yl)amino)piperidine-1-carbonyl)-N-(2-hydroxyethyl)benzenesulfonamide], the values for the EC50 in assay [1] and in assay [2] were 222 nM and 1200 nM, respectively.
Taken in the same sequence, the figures for `COc1nc(NC2CCN(S(=O)(=O)c3ccc(C(=O)O)cc3)CC2)c2cc(C(c3ccc(Cl)cc3)c3ccc(Cl)cc3)ccc2n1` [Compound #46, 4-((4-((6-(bis(4-chlorophenyl)methyl)-2-methoxyquinazolin-4-yl)amino)piperidin-1-yl)sulfonyl)benzoic acid] were 31 nM and 616 nM.
Taken in the same sequence, the figures for `O=C(O)CCOCCOc1nc(NCc2cccc(C(F)(F)F)c2)c2cc(C(c3ccc(Cl)cc3)c3ccc(Cl)cc3)ccc2n1` [Compound #48, 3-(2-((6-(bis(4-chlorophenyl)methyl)-4-((3-(trifluoromethyl)benzyl)amino)quinazolin-2-yl)oxy)ethoxy)propanoic acid] were 67 nM and 806 nM.
The matching figures for `OCC(CO)COc1nc(NCc2cccc(C(F)(F)F)c2)c2cc(C(c3ccc(Cl)cc3)c3ccc(Cl)cc3)ccc2n1` [Compound #49, 2-(((6-(bis(4-chlorophenyl)methyl)-4-((3-(trifluoromethyl)benzyl)amino)quinazolin-2-yl)oxy)methyl)propane-1,3-diol]: 4 nM and 1930 nM.
`N#CCCOCCOc1nc(NCc2cccc(C(F)(F)F)c2)c2cc(C(c3ccc(Cl)cc3)c3ccc(Cl)cc3)ccc2n1` [Compound #50, 3-(2-((6-(bis(4-chlorophenyl)methyl)-4-((3-(trifluoromethyl)benzyl)amino)quinazolin-2-yl)oxy)ethoxy)propanenitrile]: the EC50 in assay [1] is 11 nM; in assay [2], over 10000 nM.
For `N#Cc1ccc(S(=O)(=O)N2CCC(Nc3ncnc4ccc(C(c5ccc(Cl)cc5)c5ccc(Cl)cc5)cc34)CC2)cc1` [Compound #52, 4-((4-((6-(bis(4-chlorophenyl)methyl)quinazolin-4-yl)amino)piperidin-1-yl)sulfonyl)benzonitrile], the values for the EC50 in assay [1] and in assay [2] were 12 nM and over 10000 nM, respectively.
With `OCCCCOc1nc(NCc2cccc(C(F)(F)F)c2)c2cc(C(c3ccc(Cl)cc3)c3ccc(Cl)cc3)ccc2n1` [Compound #53, 4-((6-(bis(4-chlorophenyl)methyl)-4-((3-(trifluoromethyl)benzyl)amino)quinazolin-2-yl)oxy)butan-1-ol], the EC50 in assay [1] turned out to be 42 nM; in assay [2], 3700 nM.
As to `OCCOc1nc(NCc2cccc(C(F)(F)F)c2)c2cc(C(c3ccc(Cl)cc3)c3ccc(Cl)cc3)ccc2n1` [Compound #55, 2-((6-(bis(4-chlorophenyl)methyl)-4-((3-(trifluoromethyl)benzyl)amino)quinazolin-2-yl)oxy)ethanol], the EC50 in assay [1] came out at 13 nM; in assay [2] it was 4440 nM.
Turning to `NC(=O)c1cccc(CNc2ncnc3ccc(C(c4ccc(Cl)cc4)c4ccc(Cl)cc4)cc23)c1` [Compound #57, 3-(((6-(bis(4-chlorophenyl)methyl)quinazolin-4-yl)amino)methyl)benzamide], the EC50 in assay [1] was 215 nM; in assay [2], 4950 nM.
For the compound `COc1ccc(C(c2ccc(Cl)cc2)c2ccc3ncnc(NC4CCN(c5ccccc5)CC4)c3c2)cc1` (stereo not shown) [Compound #58, 6-((4-chlorophenyl)(4-methoxyphenyl)methyl)-N-(1-phenylpiperidin-4-yl)quinazolin-4-amine], the EC50 in assay [1] came to 0.5 nM; in assay [2], 67 nM.

(Values after patent US9682955B2, “Quinazoline derivatives useful as CB-1 inverse agonists” (Janssen Pharmaceutica NV, priority 2014, dated 2017).)
